Experimental data published in patent US8071581B2, “Triazolopyridazine protein kinase modulators” (SGX Pharmaceuticals, Inc., priority 2006, dated 2011).

Columns and labels:
[1] = molecular target: MET kinase (c-MET), kinase domain of human Met (Homo sapiens, UniProt P08581); assay: MET luminescence-based enzyme assay (Kinase-Glo)
GTL16 = GTL16 cell assay (EC50); assay type: cell-based; conditions: Homo sapiens, GTL 16; Table 1
Experimental: Compounds were tested in the following assays in duplicate. 96-well XTT assay: Cells were grown in growth media containing various concentrations of compounds (duplicates) on a 96-well flat bottom plate for 72 hours at 37° C. in 5% CO2. The starting cell number was 5000 cells per well and volume was 120 μl. At the end of the 72-hour incubation, 40 μl of XTT labeling mixture (50:1 solution of sodium 3′-[1-(phenylaminocarbonyl)-3,4-tetrazolium]-bis(4-methoxy-6-nitro) benzene sulfonic acid hydrate and Electron-coupling reagent: PMS (N-methyl dibenzopyrazine methyl sulfate) were added to each well of the plate. After an additional 2-6 hours […] with a spectrophotometer.

MET kinase (c-MET), kinase domain of human Met, sequence (P08581 1078-1345 limits assumed): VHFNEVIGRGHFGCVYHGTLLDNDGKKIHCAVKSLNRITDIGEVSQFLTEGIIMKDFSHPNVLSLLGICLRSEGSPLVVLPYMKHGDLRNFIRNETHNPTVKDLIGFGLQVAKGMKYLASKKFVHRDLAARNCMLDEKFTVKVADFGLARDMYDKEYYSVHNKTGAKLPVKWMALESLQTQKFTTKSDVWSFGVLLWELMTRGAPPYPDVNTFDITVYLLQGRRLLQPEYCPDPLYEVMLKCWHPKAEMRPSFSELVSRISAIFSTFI

Row | SMILES | IC50 [1] [nM] | EC50 (GTL16) [nM]
1 | O=S(=O)(NC1CC1)c1ccc(-c2ccc3nnc(Cc4ccc5ncccc5c4)n3n2)cc1 [compound 1] | < 100 | 100 to 1000
2 | O=S(=O)(c1ccc(-c2ccc3nnc(Cc4ccc5ncccc5c4)n3n2)cc1)N1CCCC1 [compound 2] | 100 to 1000 | 100 to 1000
3 | CCNS(=O)(=O)c1cccc(-c2ccc3nnc(Cc4ccc5ncccc5c4)n3n2)c1 [compound 3] | < 100 | < 100
4 | NC(=O)c1ccc(F)c(-c2ccc3nnc(Cc4ccc5ncccc5c4)n3n2)c1 [compound 4] | 100 to 1000 | 1000 to 10000
5 | CS(=O)(=O)c1ccc(-c2ccc3nnc(Cc4ccc5ncccc5c4)n3n2)cc1 [compound 5] | 100 to 1000 | 100 to 1000
6 | Fc1ccc(Oc2ccc3nnc(Cc4ccc5ncccc5c4)n3n2)cc1 [compound 6] | 100 to 1000 | 100 to 1000
7 | Fc1ccc(Oc2ccc3nnc(Cc4ccc5ncccc5c4)n3n2)cc1F [compound 7, 6-[6-(3,4-Difluoro-phenoxy)-[1,2,4]triazolo[4,3-b]pyridazin-3-ylmethyl]-quinoline] | 100 to 1000 | 100 to 1000
8 | c1ccc(Oc2ccc3nnc(Cc4ccc5ncccc5c4)n3n2)cc1 [compound 8] | 100 to 1000 | 100 to 1000
9 | COc1cccc(Oc2ccc3nnc(Cc4ccc5ncccc5c4)n3n2)c1 [compound 9] | 100 to 1000 | 100 to 1000
10 | NS(=O)(=O)c1ccc(Oc2ccc3nnc(Cc4ccc5ncccc5c4)n3n2)cc1 [compound 10] | 1000 to 10000 | 10000 to 50000
11 | NC(=O)c1ccc(Oc2ccc3nnc(Cc4ccc5ncccc5c4)n3n2)cc1 [compound 11] | 1000 to 10000 | 10000 to 50000
12 | CS(=O)(=O)c1ccc(Oc2ccc3nnc(Cc4ccc5ncccc5c4)n3n2)cc1 [compound 12] | 1000 to 10000 | 10000 to 50000
13 | Oc1ccc(Cc2nnc3ccc(Cl)nn23)cc1 [compound 13] | 1000 to 10000 | 10000 to 50000
14 | Oc1ccc(Cc2nnc3ccc(-c4ccccc4)nn23)cc1 [compound 14] | 100 to 1000 | 1000 to 10000
15 | Clc1ccc2nnc(Cc3ccc4ncccc4c3)n2n1 [compound 15, 6-(6-Chloro-[1,2,4]triazolo[4,3-b]pyridazin-3-ylmethyl)-quinoline] | – | 1000 to 10000
16 | c1ccc(-c2ccc3nnc(Cc4ccc5ncccc5c4)n3n2)cc1 [compound 16] | 100 to 1000 | 100 to 1000
17 | CC(c1ccc2ncccc2c1)c1nnc2ccc(-c3cccc(F)c3)nn12 (centres unmarked) [compound 20] | < 100 | < 100
18 | N#Cc1cccc(-c2ccc3nnc(C(F)c4ccc5ncccc5c4)n3n2)c1 (centres unmarked) [compound 22] | 100 to 1000 | 1000 to 10000
19 | O=C(c1ccc(-c2ccc3nnc(Cc4ccc5ncccc5c4)n3n2)cc1)N1CCOCC1 [compound 23] | 100 to 1000 | 100 to 1000

Row | SMILES | IC50 [1] [nM] | EC50 (GTL16) [nM]
20 | NC(=O)c1ccc(-c2ccc3nnc(Cc4ccc5ncccc5c4)n3n2)cc1 [compound 24] | < 100 | < 100
21 | NS(=O)(=O)c1cccc(-c2ccc3nnc(Cc4ccc5ncccc5c4)n3n2)c1 [compound 25] | < 100 | 100 to 1000
22 | Cc1ccc2nnc(Cc3c(F)cc4ncc(Br)cc4c3F)n2n1 [compound 28] | 1000 to 10000 | 100 to 1000
23 | CN(C)S(=O)(=O)c1ccc(-c2ccc3nnc(Cc4ccc5ncccc5c4)n3n2)cc1 [compound 29] | 100 to 1000 | 1000 to 10000
24 | Fc1cccc(-c2ccc3nnc(Cc4ccc5ncccc5c4)n3n2)c1 [compound 31] | < 100 | < 100
25 | NCc1ccc(-c2ccc3nnc(Cc4ccc5ncccc5c4)n3n2)cc1 [compound 32] | < 100 | < 100
26 | O=C(NC1CCCC1)c1cccc(-c2ccc3nnc(Cc4ccc5ncccc5c4)n3n2)c1 [compound 33] | 100 to 1000 | 100 to 1000
27 | CN(C)C(=O)c1ccc(-c2ccc3nnc(Cc4ccc5ncccc5c4)n3n2)cc1 [compound 34] | 100 to 1000 | 100 to 1000
28 | Cc1cccc(-c2ccc3nnc(Cc4ccc5ncccc5c4)n3n2)c1 [compound 35] | < 100 | 100 to 1000
29 | Cc1ccc(-c2ccc3nnc(Cc4ccc5ncccc5c4)n3n2)cc1 [compound 36] | < 100 | < 100
30 | CNS(=O)(=O)c1ccc(-c2ccc3nnc(Cc4ccc5ncccc5c4)n3n2)cc1 [compound 37] | 100 to 1000 | < 100
31 | Nc1nc2ccc(Cc3nnc4ccc(-c5ccccc5)nn34)cc2s1 [compound 42] | 100 to 1000 | 1000 to 10000
32 | c1ccc(-c2ccc3nnc(Cc4ccc5ncsc5c4)n3n2)cc1 [compound 43] | 100 to 1000 | 100 to 1000
33 | c1ccc(-c2ccc3nnc(Cc4ccc5nc[nH]c5c4)n3n2)cc1 [compound 45, 3-(3H-Benzoimidazol-5-ylmethyl)-6-phenyl-[1,2,4]triazolo[4,3-b]pyridazine] | 100 to 1000 | 100 to 1000
34 | C/C=C/c1ccc2nnc(Cc3ccc4ncccc4c3)n2n1 [compound 46] | 100 to 1000 | 100 to 1000
35 | CCNC(=O)c1cccc(-c2ccc3nnc(Cc4ccc5ncccc5c4)n3n2)c1 [compound 47] | < 100 | 100 to 1000
36 | CNS(=O)(=O)c1cccc(-c2ccc3nnc(Cc4ccc5ncccc5c4)n3n2)c1 [compound 48] | < 100 | < 100
37 | CS(=O)(=O)c1cccc(-c2ccc3nnc(Cc4ccc5ncccc5c4)n3n2)c1 [compound 49] | < 100 | < 100
38 | CS(=O)(=O)Nc1cccc(-c2ccc3nnc(Cc4ccc5ncccc5c4)n3n2)c1 [compound 51] | < 100 | 100 to 1000

Row | SMILES | IC50 [1] [nM] | EC50 (GTL16) [nM]
39 | CC(=O)Nc1ccc(-c2ccc3nnc(Cc4ccc5ncccc5c4)n3n2)cc1 [compound 52] | < 100 | 100 to 1000
40 | Fc1ccccc1-c1ccc2nnc(Cc3ccc4ncccc4c3)n2n1 [compound 53] | 100 to 1000 | 100 to 1000
41 | OCc1ccc(-c2ccc3nnc(Cc4ccc5ncccc5c4)n3n2)cc1 [compound 54] | < 100 | 100 to 1000
42 | NCc1cccc(-c2ccc3nnc(Cc4ccc5ncccc5c4)n3n2)c1 [compound 55] | < 100 | 100 to 1000
43 | CNC(=O)c1cc(F)cc(-c2ccc3nnc(Cc4ccc5ncccc5c4)n3n2)c1 [compound 56] | 100 to 1000 | 100 to 1000
44 | CC(=O)Nc1cccc(-c2ccc3nnc(Cc4ccc5ncccc5c4)n3n2)c1 [compound 57] | 100 to 1000 | 1000 to 10000
45 | CNC(=O)c1cccc(-c2ccc3nnc(Cc4ccc5ncccc5c4)n3n2)c1 [compound 58] | 100 to 1000 | 1000 to 10000
46 | N#Cc1cccc(-c2ccc3nnc(Cc4ccc5ncccc5c4)n3n2)c1 [compound 59] | – | < 100
47 | N#Cc1ccc(-c2ccc3nnc(Cc4ccc5ncccc5c4)n3n2)cc1 [compound 60] | – | 100 to 1000
48 | N#CCc1cccc(-c2ccc3nnc(Cc4ccc5ncccc5c4)n3n2)c1 [compound 61] | < 100 | 100 to 1000
49 | O=S(=O)(c1ccc(-c2ccc3nnc(Cc4ccc5ncccc5c4)n3n2)cc1)N1CCOCC1 [compound 62] | < 100 | 100 to 1000
50 | Fc1ccc(-c2ccc3nnc(Cc4ccc5ncccc5c4)n3n2)cc1 [compound 63] | 100 to 1000 | 100 to 1000
51 | CN(C)S(=O)(=O)c1cccc(-c2ccc3nnc(Cc4ccc5ncccc5c4)n3n2)c1 [compound 64] | < 100 | < 100
52 | CNc1ccc(-c2ccc3nnc(Cc4ccc5ncccc5c4)n3n2)cc1 [compound 65] | < 100 | < 100
53 | CNC(=O)c1ccc(-c2ccc3nnc(Cc4ccc5ncccc5c4)n3n2)cc1 [compound 66] | < 100 | 100 to 1000
54 | Fc1ccc(-c2ccc3nnc(Cc4ccc5ncccc5c4)n3n2)cc1F [compound 73] | – | < 100
55 | Cn1cc(-c2ccc3nnc(Cc4c[nH]c5ncccc45)n3n2)cn1 [compound 108, 6-(1-Methyl-1H-pyrazol-4-yl)-3-(1H-pyrrolo[2,3-b]pyridine-3-ylmethyl)-[1,2,4]triazolo[4,3-b]pyridazine] | – | < 100
56 | CCN1CC(n2cc(-c3cnc4ccc(C(C)c5nnc6ccc(C)nn56)cc4c3)cn2)C1 (centres unmarked) [compound 190] | < 100 | –
57 | Cc1ccc2nnc(C(C)c3ccc4ncc(-c5cnn(C)c5)cc4c3)n2n1 (centres unmarked) [compound 191] | < 100 | –
